This is an account of results in patent publication US20220370418A1, “PHARMACEUTICAL COMBINATIONS COMPRISING A FURAZANOBENZIMIDAZOLES AND A CD40 AGONIST FOR USE IN THE TREATMENT OF NEOPLASTIC DISEASES” (Basilea Pharmaceutica International AG, priority 2019, published 2022).

The conditions of data set [1]: twenty-nine patients, doses from 0.01 to 0.3 mg/kg; cited from earlier work.
The test system of data set [2] is SB28 glioma. In words: Survival in syngeneic orthotopic SB28 glioma mouse model. The data set is classed as in vivo, C57BL/6 mice.
For the next data set, the system named is GL261 glioma. In words: Survival in syngeneic orthotopic highly invasive GL261 glioma mouse model. It is filed as in vivo, C57BL/6 mice.
The conditions of data set [3]: cited from earlier work.
In data set [4] the test system is SB28 glioma. In words: Survival in syngeneic orthotopic SB28 glioma model in T- and B-cell deficient RAG1 knockout mice. It is filed as in vivo, C57BL/6 RAG1 knockout mice.
The mark [5] stands for this setting: Log-rank (Mantel-Cox) analysis, n=8-10 mice per group.

For the compound “CP-870,893: fully human IgG2 agonistic CD40 antibody developed by Pfizer”, the “maximum tolerated dose (MTD)” value in data set [1] is listed as 0.2 mg/kg.

As to `N#CCCNc1nonc1-c1nc2ccccc2n1CC(=O)c1ccc(NC(=O)[C@@H](N)CCCCN)cc1` [BAL101553, (S)-2,6-Diamino-hexanoic acid [4-(2-{2-[4-(2-cyano-ethylamino)-furazan-3-yl]-benzoimidazol-1-yl}-acetyl)-phenyl]-amide], in the data set on SB28 glioma [2] (setting [5]), the “survival of SB28 glioma bearing mice (in words, FIG. 1)” value is given as “statistically significant but smaller survival benefit than the combined regimen”. In addition, the “median survival increase versus control” value is given as 55% in the data set on SB28 glioma [2] (SB28 intra-cranial, C57BL/6 mice, BAL101553 25 mg/kg orally daily day 5-9, 12-16, 19-23, 26-30, anti-CD40 antibody 100 μg per animal IP days 7, 12, 16); 18% in the data set on GL261 glioma (GL261 intra-cranial, C57BL/6 mice, same treatment schedule as Examples 1 and 2); 33% in the data set with SB28 glioma [4] (SB28 intra-cranial, RAG1 KO mice, same treatment schedule as Example 1). Moreover, the “median survival increase, less than in the combination regimen” value in the data set with SB28 glioma [2] (single agent versus combination, SB28, C57BL/6 mice) is 26%. Further, the “survival of GL261 glioma bearing mice (in words, FIG. 3)” value with GL261 glioma (Log-rank (Mantel-Cox) analysis, n=10 mice per group) was “do not show any significant prolongation of survival”. The “median survival increase, less than measured in the combination regimen” value stood at 25% with GL261 glioma (single agent versus combination, GL261, C57BL/6 mice) and 23% in the data set with SB28 glioma [4] (single agent versus combination, SB28, RAG1 KO mice). Also, in data set [3], the “water solubility (in words)” value is reported as “highly water-soluble”. In the data set on SB28 glioma [4] (setting [5]), the “survival of SB28 glioma bearing immunodeficient (RAG1 KO) mice (in words, FIG. 2)” value is listed as “statistically significant, but smaller survival benefit than the combined regimen”.
